For assay [1], the target named is T1, Corticotropin-releasing factor receptor 2/Corticotropin-releasing factor-binding protein (Homo sapiens, UniProt P24387+Q13324).
T1 sequence (Q13324 whole entry): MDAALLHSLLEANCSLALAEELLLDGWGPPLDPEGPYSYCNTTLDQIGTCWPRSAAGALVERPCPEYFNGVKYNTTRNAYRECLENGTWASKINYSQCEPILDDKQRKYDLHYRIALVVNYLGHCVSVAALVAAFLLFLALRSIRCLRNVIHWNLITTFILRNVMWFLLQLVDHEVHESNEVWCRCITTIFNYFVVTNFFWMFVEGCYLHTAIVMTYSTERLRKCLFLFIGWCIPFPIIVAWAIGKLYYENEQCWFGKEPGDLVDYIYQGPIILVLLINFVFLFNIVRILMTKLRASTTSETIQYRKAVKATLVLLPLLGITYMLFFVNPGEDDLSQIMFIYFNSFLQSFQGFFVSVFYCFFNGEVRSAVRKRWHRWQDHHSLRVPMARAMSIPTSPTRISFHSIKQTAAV
T1 sequence (P24387 whole entry): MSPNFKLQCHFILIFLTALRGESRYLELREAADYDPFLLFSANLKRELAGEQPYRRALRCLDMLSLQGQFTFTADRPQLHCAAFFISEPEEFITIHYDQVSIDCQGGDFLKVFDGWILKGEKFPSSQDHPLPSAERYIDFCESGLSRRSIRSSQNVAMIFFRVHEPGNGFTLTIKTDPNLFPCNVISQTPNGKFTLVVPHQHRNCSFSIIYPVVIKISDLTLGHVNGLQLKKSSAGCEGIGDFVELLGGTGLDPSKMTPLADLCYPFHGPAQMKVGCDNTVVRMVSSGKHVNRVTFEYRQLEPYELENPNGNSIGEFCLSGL
As to the kind of experiment: activators of CRF receptor 2 with binding protein – uHTS hits, confirmation (AID 602473). In kind it is functional. As to conditions: read-out: EC50_Mean.

Assay [2] concerns the target T1, Corticotropin-releasing factor receptor 2/Corticotropin-releasing factor-binding protein. As to the kind of experiment: Dose Response confirmation of uHTS hits for small molecule antagonists of the CRF-binding protein and CRF-R2 receptor complex. In kind it is functional. As to conditions: read-out: IC50_Mean.
Assay [3] is described as follows: cells. In kind it is functional, cell-based.
Assay [4] is described as follows: cells. Type of assay: functional, cell-based. This is another data set of the same source.
Assay [5] in a line: Luminescence Cell-Based Dose Confirmation HTS to Identify Activators of 5'UTR Stem-Loop Driven Alpha-Synuclein mRNA Translation in H4 Neuroglioblastoma Cells. [Related pubchem assays: 1829 (Project Summary), 1814 (Primary HTS)]. In kind it is functional.
In a further assay the test system is H4. Briefly: Luminescence Cell-Based Dose Response HTS to Identify Activators of 5'UTR Stem-Loop Driven Prion Protein mRNA Translation in H4 Neuroglioblastoma Cells. [Related pubchem assays: 1829 (Project Summary), 1814 (Primary HTS)]. In kind it is functional. As to conditions: Homo sapiens.
A short description of assay [6]: Luminescence Cell-Based Dose Response HTS to Identify Activators of Luciferase Translation or Activity in H4 […] Cells. [Related pubchem assays: 1829 (Project Summary), 1814 (Primary HTS)]. In kind it is functional.
Assay [7] in a line: inhibitors of clade B AD8 Env fusion, dose response, cell-based, cherry-pick (AID 652062).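 Also: luciferase signal from cell-cell fusion driven by HIV-1 clade B AD8 Env; potency is for inhibitors of fusion seen as a drop in luminescence.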 In kind it is functional.
The nature of assay [8]: inhibitors of HIV Env-driven cell fusion, dose response, cherry-pick (AID 652057). In kind it is functional, cell-based.
For assay [9], the system named is Streptococcus sp. 'group A'. Briefly: growth inhibition of control SK(-) GAS strain, dose response, counter-screen for streptokinase expression inhibitor project, luminescence, kanamycin, BacTiterGlo, confirmation (AID 1900). In kind it is functional, organism-based.
The next assay has as its system Streptococcus. Briefly: Group A Streptococcus viability loss, dose response, counter-screen for streptokinase expression inhibitor project, luminescence, BacTiterGlo (AID 1915).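 Also: potency for reduction of bacterial viability or growth.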 Type of assay: functional, organism-based.
The target in assay [10] is T2, Replicative DNA helicase DnaB (Mycobacterium tuberculosis, UniProt P9WMR3).
T2 sequence (P9WMR3 whole entry): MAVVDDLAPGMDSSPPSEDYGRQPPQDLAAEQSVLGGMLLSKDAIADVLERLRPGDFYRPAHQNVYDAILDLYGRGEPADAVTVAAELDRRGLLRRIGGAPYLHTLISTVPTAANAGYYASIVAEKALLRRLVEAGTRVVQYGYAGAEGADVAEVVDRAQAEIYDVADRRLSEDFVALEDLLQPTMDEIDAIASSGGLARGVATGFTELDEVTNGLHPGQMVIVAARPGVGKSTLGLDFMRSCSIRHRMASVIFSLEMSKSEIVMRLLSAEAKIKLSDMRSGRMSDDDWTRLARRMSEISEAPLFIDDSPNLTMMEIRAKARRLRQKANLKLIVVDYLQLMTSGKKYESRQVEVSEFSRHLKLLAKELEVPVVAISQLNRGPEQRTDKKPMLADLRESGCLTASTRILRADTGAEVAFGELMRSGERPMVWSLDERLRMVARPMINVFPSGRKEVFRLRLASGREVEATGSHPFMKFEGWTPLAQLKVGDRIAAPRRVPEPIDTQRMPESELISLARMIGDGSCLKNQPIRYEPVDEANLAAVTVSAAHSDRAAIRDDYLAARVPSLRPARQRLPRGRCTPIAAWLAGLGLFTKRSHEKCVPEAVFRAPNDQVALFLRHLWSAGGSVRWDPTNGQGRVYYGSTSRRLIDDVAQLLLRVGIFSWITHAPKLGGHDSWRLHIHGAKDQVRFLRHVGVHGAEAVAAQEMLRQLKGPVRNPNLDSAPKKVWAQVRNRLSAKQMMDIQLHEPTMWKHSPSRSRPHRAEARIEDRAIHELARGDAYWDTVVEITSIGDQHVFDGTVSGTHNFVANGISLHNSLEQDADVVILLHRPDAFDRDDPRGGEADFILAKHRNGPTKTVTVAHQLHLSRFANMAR
As to the kind of experiment: DnaB intein splicing inhibitors, dose response, biochemical, cell-free fluorescence (AID 449749). In kind it is functional.

In the next assay the target is T3, Protein RecA (Mycobacterium tuberculosis, UniProt P9WHJ3).
T3 sequence (P9WHJ3 whole entry): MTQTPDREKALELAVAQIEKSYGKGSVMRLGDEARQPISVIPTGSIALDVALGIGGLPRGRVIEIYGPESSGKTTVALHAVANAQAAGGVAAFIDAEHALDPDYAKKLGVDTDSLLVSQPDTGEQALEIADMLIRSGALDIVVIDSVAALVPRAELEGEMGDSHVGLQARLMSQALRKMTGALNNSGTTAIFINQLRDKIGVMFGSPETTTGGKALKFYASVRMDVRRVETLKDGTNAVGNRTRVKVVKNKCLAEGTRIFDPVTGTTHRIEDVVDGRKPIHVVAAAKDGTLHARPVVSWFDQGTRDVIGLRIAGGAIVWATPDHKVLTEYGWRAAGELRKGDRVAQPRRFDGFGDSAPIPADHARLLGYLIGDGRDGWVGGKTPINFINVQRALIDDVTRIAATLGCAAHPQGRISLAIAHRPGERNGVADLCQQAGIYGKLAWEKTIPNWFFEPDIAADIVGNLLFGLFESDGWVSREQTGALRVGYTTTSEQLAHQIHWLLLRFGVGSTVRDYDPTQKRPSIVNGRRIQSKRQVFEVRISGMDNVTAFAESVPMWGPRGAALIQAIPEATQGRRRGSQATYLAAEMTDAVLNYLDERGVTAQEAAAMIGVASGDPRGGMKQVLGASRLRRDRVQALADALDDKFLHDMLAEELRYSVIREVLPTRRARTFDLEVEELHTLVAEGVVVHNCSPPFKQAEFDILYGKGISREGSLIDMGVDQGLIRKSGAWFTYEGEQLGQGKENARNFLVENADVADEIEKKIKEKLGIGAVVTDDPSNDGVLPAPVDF
Briefly: Fluorescence Cell-Free Homogeneous Dose Retest to Identify Inhibitors of RecA-Intein Splicing Activity. [Related pubchem assays (depositor defined):AID2097, AID2223, AID489010, AID492950]. In kind it is functional.

Assay [11] in a line: microbe, parasite or virus in culture. In kind it is functional. Particulars: Mycobacterium tuberculosis.

We go through 26 compounds from ChEMBL document CHEMBL1201862, “PubChem BioAssay data set” (2004).

Active and inactive are the calls of the source. Rule as the data show it, for most assays here: actives have a measured EC50 and inactives only a lower limit.

For `CCC(C)NC(=O)CSc1nc2ccccc2c(=O)n1CCCC(=O)NCC1CCCO1` (stereo unspecified), the EC50 in assay [1] is > 53 µM (inactive). In [2], the IC50 was > 47.1 µM (inactive).

For `O=C(c1ccc(OC2CCN(CCc3ccccc3)CC2)cc1)N1CCCC(CCCO)C1` (stereo unspecified), the EC50 in “cells [3]” and in the assay “cells [4]” was > 350 µM (not active) each time.

Consider `O=C(O)C(c1ccccc1)C1(O)CCCC1` (stereo unspecified), for which the EC50 in assay [1] is > 53 µM (inactive). Besides, in assay [2], the IC50 was > 47.1 µM (inactive).

For `Cc1ccc(S(=O)(=O)N(C)CC(=O)NCCCn2ccnc2)cc1`, the EC50 in “cells [3]” and in the assay “cells [4]” was > 350 µM (not active) each time.

For `N#C/C(=C(/O)c1ccc(F)cc1)c1nc2ccccc2s1`, the EC50 is > 350 µM (not active) in the assay “cells [3]” and 7.41 µM (active) in the assay “cells [4]”.

For `O=C(Cn1c(Cc2ccccc2)nc2ccccc21)NCc1ccc2c(c1)OCO2`, the EC50 in “cells [3]” and in “cells [4]” was > 350 µM (not active) throughout.

Regarding `Cc1ccc(NC2=NC(=O)c3cccc([N+](=O)[O-])c32)cc1`, the EC50 was 77.8 µM (active) in assay [5], 26.8 µM (active) in the assay on H4 and 26.7 µM (active) in assay [6].

Take `Cc1nn(-c2cccc([N+](=O)[O-])c2)c(N)c1-c1ccccc1`: the EC50 in assay [1] is > 53 µM (inactive). In addition, the IC50 in assay [2] was > 47.1 µM (inactive).

With `CC(=O)N1CCOc2ccc(S(=O)(=O)N3CCCCC3)cc21`, the EC50 (in assay [5]; in the assay with H4; in [6]) was > 120 µM (not active) throughout.

Regarding `COc1ccc(NC(=O)CSc2nc(O)c3c(n2)CCC3)cc1OC`, the EC50 in “cells [3]” and in “cells [4]” was > 350 µM (not active) throughout.

`COc1ccc(OC2C(=O)N(Cc3ccc(F)cc3)C2c2cc(OC)c(OC)c(OC)c2)cc1` (stereo unspecified): in [1], the EC50 was > 53 µM (inactive). Besides, the IC50 in assay [2] is > 47.1 µM (inactive).

On to `CN(Cc1cccs1)C(=O)CSc1nc(N)cc(N)n1`, for which the EC50 in the assay “cells [3]” and in the assay “cells [4]” was > 350 µM (not active) each time.

As to `CN1C(=O)C2(c3ccccc31)N(C)CC(c1ccccc1)C21SC(=S)N(Cc2ccco2)C1=O` (stereo unspecified), the concentration at half-maximal activity (AC50) was 36.5 µM (active) in [7] and 46.4 µM (active) in assay [8].

Turning to `O=C(NCCCC1CCCC1)C1CCC(=O)N(Cc2cccc(F)c2)C1` (stereo unspecified), the EC50 (in [5]; with H4; in [6]) was > 120 µM (not active) throughout.

Take `O=C(Nc1nc(-c2ccccn2)cs1)c1ccc(S(=O)(=O)N2CCCCC2)cc1`: the EC50 was 13.4 µM (active) in the assay “cells [3]”, 0.879 µM (active) in assay [9], > 350 µM (not active) in the assay “cells [4]” and 2.56 µM (active) in the assay with Streptococcus.

In the case of `Cn1c(CO)nc2c3ccccc3ccc21`, the EC50 in the assay “cells [3]” and in “cells [4]” was > 350 µM (not active) each time.

In the case of `CCOc1ccc(CCNC(=O)C2CCCN(c3ncnc4c3nc3n4CCCCC3)C2)cc1` (stereo unspecified), the EC50 in assay [1] is > 53 µM (inactive). Also, in [2], the IC50 is > 47.1 µM (inactive).

With `CSc1ccccc1N=C(S)NCc1ccc(Cl)cc1`, the EC50 was 4.54 µM (active) in assay [5], 9.9 µM (active) with H4 and 5.76 µM (active) in [6].

Take `CSc1ccccc1OCc1cc(C(=O)NCc2csc(C(C)C)n2)no1`: the EC50 in assay [1] was > 53 µM (inactive). In addition, the IC50 in assay [2] is > 47.1 µM (inactive).

Turning to `Cc1ccc(-c2nc3nc4ccccc4nc3n2Cc2ccco2)cc1`, the EC50 in assay [5] is 21.9 µM (active); in [6], 13.2 µM (active).

Regarding `CNC(=O)C1CCN(S(=O)(=O)c2c(C)noc2/C=C/c2ccccc2F)CC1`, the EC50 in assay [5] was 21.8 µM (active); in the assay on H4, > 120 µM (not active); in assay [6] it was 12.8 µM (active).

As for `O=C(c1cccc(C(F)(F)F)c1)C1CCCN(C(=O)Cn2cncn2)C1` (stereo unspecified), the EC50 in the assay “cells [3]” and in the assay “cells [4]” was > 350 µM (not active) throughout.

`CCOC(=O)c1c(NC(=O)CCl)sc(CN(C)C)c1-c1ccccc1`: the AC50 in assay [10] was 20.4 µM (active). The EC50 at Protein RecA is 7.5 µM (active). In addition, in [11], the CC50 was 12.5 µM (active).

Consider `CC1(C)Cc2c(sc(/N=C/N3CCCC3)c2C#N)C(C)(C)N1`, for which, in [1], the EC50 is > 53 µM (inactive). In assay [2], the IC50 was > 47.1 µM (inactive).

`CN(C)c1ccc(/C=N/NC(=S)NCc2ccco2)cc1`: the EC50 in assay [5] was 15.3 µM (active); in the assay with H4 it was > 120 µM (not active); in [6], 8.41 µM (active).

As to `COc1ccc(N2/C(=N/C(=O)CCC3CCCC3)SC3CS(=O)(=O)CC32)cc1` (stereo unspecified), the EC50 in the assay “cells [3]” and in “cells [4]” was > 350 µM (not active) in each case.
